# Measured values as given in patent publication US11691980B2, “Liphagal analog and multi-targeted kinase inhibitor containing liphagal or analog thereof” (TOHOKU UNIVERSITY, priority 2017, dated 2023).
# Tests used:
# Assay type in all cases: biochemical
# [1] = target: T1, CLK2 (Homo sapiens, UniProt P49760); experiment: mobility shift assay
# T1 construct: purchased Carna Biosciences
# [2] = target: T2, SPHK1 (Homo sapiens, UniProt Q9NYA1); experiment: mobility shift assay
# T2 construct: purchased Carna Biosciences
# [3] = target: T3, OK1δ (Homo sapiens, UniProt P48730); experiment: mobility shift assay
# T3 construct: purchased Carna Biosciences
# [4] = target: T4, p38δ (Homo sapiens, UniProt O15264); experiment: mobility shift assay
# T4 construct: purchased Carna Biosciences
# [5] = target: T5, EGFR(T790M) (Homo sapiens, UniProt P00533, T790M); experiment: mobility shift assay
# T5 construct: purchased Carna Biosciences
# [6] = target: T6, AurA (Homo sapiens, UniProt O14965); experiment: mobility shift assay
# T6 construct: purchased Carna Biosciences
# [7] = target: T7, MER (Homo sapiens, UniProt Q12866); experiment: mobility shift assay
# T7 construct: purchased Carna Biosciences
# [8] = target: T8, HPK4 (Homo sapiens, UniProt Q8NE63); experiment: mobility shift assay
# T8 construct: purchased Carna Biosciences
# [9] = system: TRK1; experiment: mobility shift assay; settings: 10 μM
# [10] = target: T9, YES (Homo sapiens, UniProt P07947); experiment: mobility shift assay
# T9 construct: purchased Carna Biosciences
# [11] = target: T10, EPHA6 (Homo sapiens, UniProt Q9UF33); experiment: mobility shift assay
# T10 construct: purchased Carna Biosciences
# [12] = target: T11, CK1ε (Homo sapiens, UniProt P49674); experiment: mobility shift assay
# T11 construct: purchased Carna Biosciences
# [13] = target: T12, FGFR2 (Homo sapiens, UniProt P21802); experiment: mobility shift assay
# T12 construct: purchased Carna Biosciences
# [14] = target: T13, PRKX (Homo sapiens, UniProt P51817); experiment: mobility shift assay
# T13 construct: purchased Carna Biosciences
# [15] = target: T14, SRC (Homo sapiens, UniProt P12931); experiment: mobility shift assay
# T14 construct: purchased Carna Biosciences
# [16] = target: T15, ALK(G1202R) (Homo sapiens, UniProt Q9UM73, G1202R); experiment: mobility shift assay
# T15 construct: purchased Carna Biosciences
# [17] = target: T16, DYRK1A (Homo sapiens, UniProt Q13627); experiment: mobility shift assay
# T16 construct: purchased Carna Biosciences
# [18] = target: T17, CLK3 (Homo sapiens, UniProt P49761); experiment: mobility shift assay
# T17 construct: purchased Carna Biosciences
# [19] = target: T18, NEK7 (Homo sapiens, UniProt Q8TDX7); experiment: mobility shift assay
# T18 construct: purchased Carna Biosciences
# [20] = target: T19, TAK1-TAB1_Cascade (Homo sapiens, UniProt O43318); experiment: mobility shift assay
# T19 construct: purchased Carna Biosciences
# [21] = target: T20, EML4-ALK (Homo sapiens, UniProt Q9UM73); experiment: mobility shift assay
# T20 construct: EML4 (fusion partner, Q9HC35); purchased Carna Biosciences; the other entry of the earlier key: EML4 (Q9HC35, Echinoderm microtubule-associated protein-like 4)
# [22] = target: T21, EGFR(L861Q) (Homo sapiens, UniProt P00533, L861Q); experiment: mobility shift assay
# T21 construct: purchased Carna Biosciences
# [23] = target: T22, JAK3 (Homo sapiens, UniProt P52333); experiment: mobility shift assay
# T22 construct: purchased Carna Biosciences
# [24] = target: T23, COT_Cascade (Homo sapiens, UniProt P41279); experiment: mobility shift assay
# T23 construct: purchased Carna Biosciences
# [25] = target: T24, MAPKAPK2 (Homo sapiens, UniProt P49137); experiment: mobility shift assay
# T24 construct: purchased Carna Biosciences
# [26] = target: T25, PKN1 (Homo sapiens, UniProt Q16512); experiment: IMAP Assay
# T25 construct: purchased Carna Biosciences
# [27] = target: T26, CDC2/CycB1 (Homo sapiens, UniProt P06493); experiment: mobility shift assay
# T26 construct: purchased Carna Biosciences
# [28] = target: T27, LYNb (Homo sapiens, UniProt P07948); experiment: mobility shift assay
# T27 construct: purchased Carna Biosciences
# [29] = target: T28, GSK3α (Homo sapiens, UniProt P49840); experiment: mobility shift assay
# T28 construct: purchased Carna Biosciences
# [30] = target: T29, PKCθ (Homo sapiens, UniProt Q04759); experiment: mobility shift assay
# T29 construct: purchased Carna Biosciences
# [31] = target: T30, EFHB2 (Homo sapiens, UniProt P29323); experiment: mobility shift assay
# T30 construct: purchased Carna Biosciences
# [32] = target: T31, p70S6K (Homo sapiens, UniProt P23443); experiment: mobility shift assay
# T31 construct: purchased Carna Biosciences
# [33] = target: T32, BTK (Homo sapiens, UniProt Q06187); experiment: mobility shift assay
# T32 construct: purchased Carna Biosciences
# [34] = target: T33, MAPKAPK5 (Homo sapiens, UniProt Q8IW41); experiment: mobility shift assay
# T33 construct: purchased Carna Biosciences
# [35] = target: T34, SRPK1 (Homo sapiens, UniProt Q96SB4); experiment: IMAP Assay
# T34 construct: purchased Carna Biosciences
# [36] = target: T35, PKACγ (Homo sapiens, UniProt P22612); experiment: mobility shift assay
# T35 construct: purchased Carna Biosciences
# [37] = target: T36, SGK2 (Homo sapiens, UniProt Q9HBY8); experiment: mobility shift assay
# T36 construct: purchased Carna Biosciences
# [38] = target: T37, SRM (Homo sapiens, UniProt Q9H3Y6); experiment: mobility shift assay
# T37 construct: purchased Carna Biosciences
# [39] = target: T38, FGFR4 (Homo sapiens, UniProt P22455); experiment: mobility shift assay
# T38 construct: purchased Carna Biosciences
# [40] = target: T39, INSR (Homo sapiens, UniProt P06213); experiment: mobility shift assay
# T39 construct: purchased Carna Biosciences
# [41] = target: T40, EPHA7 (Homo sapiens, UniProt Q15375); experiment: mobility shift assay
# T40 construct: purchased Carna Biosciences
# T5 sequence (P00533 25-1210 T790M): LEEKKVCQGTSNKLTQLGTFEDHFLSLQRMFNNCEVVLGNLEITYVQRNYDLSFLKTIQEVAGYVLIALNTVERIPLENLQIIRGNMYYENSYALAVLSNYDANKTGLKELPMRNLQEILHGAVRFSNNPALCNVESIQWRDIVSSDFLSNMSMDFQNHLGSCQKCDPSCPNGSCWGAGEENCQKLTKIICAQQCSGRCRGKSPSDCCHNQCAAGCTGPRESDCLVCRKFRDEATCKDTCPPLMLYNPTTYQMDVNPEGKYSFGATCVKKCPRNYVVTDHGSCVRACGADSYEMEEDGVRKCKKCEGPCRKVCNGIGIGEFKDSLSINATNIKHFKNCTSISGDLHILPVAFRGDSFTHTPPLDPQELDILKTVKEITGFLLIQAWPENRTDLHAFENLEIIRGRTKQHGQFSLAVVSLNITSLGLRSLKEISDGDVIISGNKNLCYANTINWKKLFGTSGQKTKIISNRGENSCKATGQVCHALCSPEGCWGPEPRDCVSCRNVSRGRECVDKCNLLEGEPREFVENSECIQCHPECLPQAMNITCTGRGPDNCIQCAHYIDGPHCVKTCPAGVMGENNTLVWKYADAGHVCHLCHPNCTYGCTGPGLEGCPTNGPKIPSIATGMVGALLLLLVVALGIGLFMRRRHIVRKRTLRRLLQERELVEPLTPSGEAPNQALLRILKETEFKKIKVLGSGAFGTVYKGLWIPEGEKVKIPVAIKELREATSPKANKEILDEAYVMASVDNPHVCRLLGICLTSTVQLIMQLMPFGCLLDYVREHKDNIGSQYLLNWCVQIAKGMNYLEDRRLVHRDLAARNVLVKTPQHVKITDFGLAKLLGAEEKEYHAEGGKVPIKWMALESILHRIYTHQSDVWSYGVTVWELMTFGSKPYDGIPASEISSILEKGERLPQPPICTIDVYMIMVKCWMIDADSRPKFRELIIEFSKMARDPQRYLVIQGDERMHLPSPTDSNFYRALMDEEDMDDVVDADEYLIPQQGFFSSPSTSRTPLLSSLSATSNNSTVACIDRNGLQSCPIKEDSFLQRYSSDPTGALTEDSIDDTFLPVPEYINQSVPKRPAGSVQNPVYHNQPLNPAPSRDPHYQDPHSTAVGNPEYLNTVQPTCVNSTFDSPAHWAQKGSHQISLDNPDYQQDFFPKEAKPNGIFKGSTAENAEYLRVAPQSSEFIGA
# T33 sequence (Q8IW41 whole entry): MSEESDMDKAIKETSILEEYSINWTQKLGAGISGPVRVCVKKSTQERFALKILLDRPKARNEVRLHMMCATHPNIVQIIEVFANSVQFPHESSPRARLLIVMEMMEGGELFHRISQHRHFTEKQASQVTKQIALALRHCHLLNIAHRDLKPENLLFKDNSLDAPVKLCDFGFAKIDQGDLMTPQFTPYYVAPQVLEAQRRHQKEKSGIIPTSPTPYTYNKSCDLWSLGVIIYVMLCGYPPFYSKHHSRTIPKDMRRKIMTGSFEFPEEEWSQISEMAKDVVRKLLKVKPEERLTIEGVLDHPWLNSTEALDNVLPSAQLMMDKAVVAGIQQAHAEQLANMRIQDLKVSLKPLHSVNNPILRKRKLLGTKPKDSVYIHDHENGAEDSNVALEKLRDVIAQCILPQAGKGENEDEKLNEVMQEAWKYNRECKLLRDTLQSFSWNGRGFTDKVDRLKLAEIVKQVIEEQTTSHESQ
# T15 sequence (Q9UM73 19-1620 G1202R): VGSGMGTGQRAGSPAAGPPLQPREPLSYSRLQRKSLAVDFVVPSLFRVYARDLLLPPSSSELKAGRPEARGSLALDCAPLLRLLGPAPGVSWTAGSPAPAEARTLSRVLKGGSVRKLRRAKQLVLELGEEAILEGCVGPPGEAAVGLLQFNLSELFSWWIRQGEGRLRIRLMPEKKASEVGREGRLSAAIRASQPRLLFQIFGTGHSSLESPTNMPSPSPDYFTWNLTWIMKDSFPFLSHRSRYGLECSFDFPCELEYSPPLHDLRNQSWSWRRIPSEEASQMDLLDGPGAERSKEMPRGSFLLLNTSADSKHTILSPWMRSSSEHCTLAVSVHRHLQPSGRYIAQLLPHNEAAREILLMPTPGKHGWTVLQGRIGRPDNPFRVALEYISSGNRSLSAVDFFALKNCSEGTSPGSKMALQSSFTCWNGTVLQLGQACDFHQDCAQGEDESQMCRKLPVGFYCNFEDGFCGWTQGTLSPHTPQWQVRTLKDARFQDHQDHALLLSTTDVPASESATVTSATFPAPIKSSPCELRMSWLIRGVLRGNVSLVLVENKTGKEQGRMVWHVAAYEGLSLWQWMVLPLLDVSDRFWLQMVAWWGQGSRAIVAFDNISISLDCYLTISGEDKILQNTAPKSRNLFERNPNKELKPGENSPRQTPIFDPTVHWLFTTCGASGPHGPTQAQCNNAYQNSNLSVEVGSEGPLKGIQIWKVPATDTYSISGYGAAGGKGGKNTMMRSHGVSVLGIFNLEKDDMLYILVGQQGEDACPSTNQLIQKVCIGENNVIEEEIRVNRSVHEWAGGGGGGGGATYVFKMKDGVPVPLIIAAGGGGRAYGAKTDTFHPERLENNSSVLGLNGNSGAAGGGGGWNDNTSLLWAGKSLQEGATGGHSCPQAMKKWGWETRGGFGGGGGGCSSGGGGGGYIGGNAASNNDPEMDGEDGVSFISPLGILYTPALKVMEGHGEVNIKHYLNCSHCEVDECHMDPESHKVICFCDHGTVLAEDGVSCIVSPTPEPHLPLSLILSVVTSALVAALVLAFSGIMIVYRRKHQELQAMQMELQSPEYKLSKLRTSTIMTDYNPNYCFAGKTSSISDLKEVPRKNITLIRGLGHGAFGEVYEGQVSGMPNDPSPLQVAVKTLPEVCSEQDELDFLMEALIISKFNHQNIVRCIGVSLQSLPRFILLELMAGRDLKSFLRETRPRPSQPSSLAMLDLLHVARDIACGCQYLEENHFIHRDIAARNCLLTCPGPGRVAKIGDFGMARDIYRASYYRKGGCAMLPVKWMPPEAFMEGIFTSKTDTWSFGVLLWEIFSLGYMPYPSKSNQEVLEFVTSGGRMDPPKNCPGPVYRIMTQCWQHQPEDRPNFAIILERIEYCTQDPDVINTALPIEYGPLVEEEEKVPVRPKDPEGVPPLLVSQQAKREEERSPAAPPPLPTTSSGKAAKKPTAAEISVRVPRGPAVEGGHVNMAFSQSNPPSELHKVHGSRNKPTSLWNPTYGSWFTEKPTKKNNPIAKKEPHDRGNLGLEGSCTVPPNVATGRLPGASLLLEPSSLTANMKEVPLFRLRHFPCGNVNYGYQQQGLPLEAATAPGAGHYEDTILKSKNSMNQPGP
# T22 sequence (P52333 whole entry): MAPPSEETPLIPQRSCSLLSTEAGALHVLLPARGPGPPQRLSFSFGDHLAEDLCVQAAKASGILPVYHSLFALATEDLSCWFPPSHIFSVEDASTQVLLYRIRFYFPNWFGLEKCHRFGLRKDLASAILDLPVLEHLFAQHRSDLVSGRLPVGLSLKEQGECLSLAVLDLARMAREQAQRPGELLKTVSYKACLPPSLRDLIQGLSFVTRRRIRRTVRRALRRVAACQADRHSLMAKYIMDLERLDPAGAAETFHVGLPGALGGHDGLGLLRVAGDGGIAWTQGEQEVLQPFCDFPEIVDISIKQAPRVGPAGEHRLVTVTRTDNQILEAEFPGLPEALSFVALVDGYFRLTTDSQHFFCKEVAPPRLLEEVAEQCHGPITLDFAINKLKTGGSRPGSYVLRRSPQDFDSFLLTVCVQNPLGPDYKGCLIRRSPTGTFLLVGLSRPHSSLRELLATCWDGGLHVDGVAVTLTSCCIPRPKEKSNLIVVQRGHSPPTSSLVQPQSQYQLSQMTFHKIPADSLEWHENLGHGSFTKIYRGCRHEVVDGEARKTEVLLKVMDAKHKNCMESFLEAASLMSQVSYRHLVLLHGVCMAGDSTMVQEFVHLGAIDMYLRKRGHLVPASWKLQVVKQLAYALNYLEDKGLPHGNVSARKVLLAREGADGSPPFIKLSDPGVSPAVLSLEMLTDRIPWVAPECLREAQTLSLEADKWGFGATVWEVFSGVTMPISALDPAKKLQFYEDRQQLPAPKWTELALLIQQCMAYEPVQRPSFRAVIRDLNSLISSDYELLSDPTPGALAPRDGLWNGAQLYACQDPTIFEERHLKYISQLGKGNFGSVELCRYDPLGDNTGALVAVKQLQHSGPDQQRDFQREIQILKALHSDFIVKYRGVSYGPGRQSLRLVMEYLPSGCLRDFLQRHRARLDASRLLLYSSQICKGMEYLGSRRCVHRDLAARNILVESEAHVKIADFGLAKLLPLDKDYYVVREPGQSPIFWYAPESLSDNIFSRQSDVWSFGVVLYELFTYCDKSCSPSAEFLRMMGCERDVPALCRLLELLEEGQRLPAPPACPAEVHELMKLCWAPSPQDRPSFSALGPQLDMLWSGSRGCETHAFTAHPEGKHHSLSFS
# T31 sequence (P23443 whole entry): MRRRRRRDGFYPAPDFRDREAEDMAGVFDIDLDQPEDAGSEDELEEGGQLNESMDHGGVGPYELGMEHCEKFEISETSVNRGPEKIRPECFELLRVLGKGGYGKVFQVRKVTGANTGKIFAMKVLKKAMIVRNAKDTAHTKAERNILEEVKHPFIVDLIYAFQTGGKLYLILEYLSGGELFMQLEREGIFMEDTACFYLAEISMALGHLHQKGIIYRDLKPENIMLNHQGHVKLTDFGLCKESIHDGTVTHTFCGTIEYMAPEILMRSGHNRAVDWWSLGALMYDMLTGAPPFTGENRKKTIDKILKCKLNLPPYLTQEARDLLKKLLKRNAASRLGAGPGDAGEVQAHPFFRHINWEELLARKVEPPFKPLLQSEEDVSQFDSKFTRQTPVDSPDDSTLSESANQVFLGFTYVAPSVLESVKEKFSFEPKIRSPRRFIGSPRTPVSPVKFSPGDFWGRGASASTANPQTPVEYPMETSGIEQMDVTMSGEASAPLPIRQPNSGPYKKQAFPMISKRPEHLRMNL
compound,measurement,setting,value
"C[C@@H]1CC[C@H]2C(C)(C)CCC[C@]2(C)c2c1oc1c(C=O)c(O)c(O)cc21 [LG-1, liphagal]",inhibition at 10 µM,[1],-25.5%
same,inhibition at 10 µM,[2],59.8%
same,inhibition at 10 µM,[3],4.1%
same,inhibition at 10 µM,[4],-0.1%
same,inhibition at 10 µM,[5],-2%
same,inhibition at 10 µM,[6],53.9%
same,inhibition at 10 µM,[7],2.1%
same,inhibition at 10 µM,[8],18.2%
same,% Inhibition,[9],−0.5%
same,inhibition at 10 µM,[10],0.7%
same,inhibition at 10 µM,[11],23%
same,inhibition at 10 µM,[12],37.7%
same,inhibition at 10 µM,[13],-8.4%
same,inhibition at 10 µM,[14],20%
same,inhibition at 10 µM,[15],-7.1%
same,inhibition at 10 µM,[16],-0.3%
same,inhibition at 10 µM,[17],10.5%
same,inhibition at 10 µM,[18],5.7%
same,inhibition at 10 µM,[19],24.4%
same,inhibition at 10 µM,[20],13.9%
same,inhibition at 10 µM,[21],1.1%
same,inhibition at 10 µM,[22],1.5%
same,inhibition at 10 µM,[23],-7.2%
same,inhibition at 10 µM,[24],14.7%
same,inhibition at 10 µM,[25],0.5%
same,inhibition at 10 µM,[26],5.3%
same,inhibition at 10 µM,[27],33.7%
same,inhibition at 10 µM,[28],2.8%
same,inhibition at 10 µM,[29],23.1%
same,inhibition at 10 µM,[30],-15%
same,inhibition at 10 µM,[31],5.4%
same,inhibition at 10 µM,[32],15.9%
same,inhibition at 10 µM,[33],10.3%
same,inhibition at 10 µM,[34],4.8%
same,inhibition at 10 µM,[35],28.2%
same,inhibition at 10 µM,[36],18.7%
same,inhibition at 10 µM,[37],9.3%
same,inhibition at 10 µM,[38],19%
same,inhibition at 10 µM,[39],7.5%
same,inhibition at 10 µM,[40],14.1%
same,inhibition at 10 µM,[41],8.7%
